# Results: patent publication US10568876B2, “Tetrahydroisoquinoline derivatives useful as inhibitors of diacylglyceride O-acyltransferase 2” (Merck Sharp & Dohme Corp., priority 2014, dated 2020)
# Target: hDGAT2 (Homo sapiens (Human), UniProt Q96PD7)
# Test: DGAT2 Enzymatic Activity Assay
# Type: biochemical
# Settings: hDGAT2 Sf-9 membrane prep; 25 μM diolein, 10 μM oleoyl-CoA; triolein product by LC/MS/MS; read-out: IC50 values for inhibition of DGAT2
# Procedure: Sf-9 insect cells were maintained in Grace's insect cell culture medium with 10% heated-inactivated fetal bovine serum, 1% Pluronic F-68 and 0.14 μg/ml Kanamycine sulfate in Erlenmeyer flasks at 28° C. in a shaker incubator. After infection with untagged hDGAT2 baculovirus at multiplicity of infection (MOI) 0.1 for 48 hours, cells were harvested. Cell pellets were suspended in buffer containing 10 mM Tris-HCl (pH 7.5), 1 mM EDTA (pH 8.0), 250 mM sucrose and Complete Protease Inhibitor Cocktail (Roche Diagnostics Corp., Indianapolis, Ill.), and sonicated on ice. Membrane fractions were isolated by ultracentrifugation (100,000×g pellet), resuspended in the same buffer, and frozen (−80° C.) for later use. The protein concentration was determined with the BCA Protein Assay kit (Pierce Biotechnology Inc., Rockford, Ill.). Expression of protein levels was analyzed by immunoblotting with goat polyclonal DGAT2 antibody C-15 and donkey anti-goat IgG HRP (Santa Cruz Biotechnology, Inc., Santa Cruz, Calif.) followed by detection with ECL reagent (GE Healthcare, Piscataway, N.J.).
# LC/MS/MS analyses were performed using Thermal Fisher's LX4-TSQ Vantage system. This system consists of an Agilent binary high-performance liquid chromatography (HPLC) pumps and a TSQ Vantage triple quadrupole MS/MS instrument. For each sample, 2 μL, samples from the top organic layer of in-plate liquid-liquid extraction were injected onto a Thermo Betabasic C4 column (2.1 mm×20 mm, 5 μm particle size). The samples were then eluted using the following conditions; mobile phase: methanol/water with 0.1% ammonium format=92/8 (v/v), flow rate: 1 mL/min, temperature: 25 C. Data was acquired in positive mode using a heated electrospray ionization (HESI) interface. The operational parameters for the TSQ Vantage MS/MS instrument were a spray voltage of 3000 V, capillary temperature of 280° C., vaporizer temperature 400° C., shealth gas 60 arbitrary unit, Aux gas 40 arbitrary units, S-lens 113 and collision gas 0.16 Pascals. […] (SRM) chromatograms of triolein (Q1: 902.9>Q3: 602.3) and internal standard (Q1: 902.9>Q3: 602.3) were collected for 40 sec. The peak area was integrated by Xcalibur Quan software. The ratio between the triolein generated in the reaction and spiked in internal standard were used to generate percentage inhibition and IC50 values. Compound percentage inhibition was calculated by the following formula: Inhibition %=1-[(compound response low control)/(high control low control)]×100%. Potent compounds were titrated and IC50 were calculated by 4 parameter sigmoidal curve fitting formula.
# DGAT2 activity was determined by measuring the amount of enzymatic product triolein (1,2,3-Tri(cis-9-octadecenoyl)glycerol) using the membrane prep mentioned above. The assay was carried out in deep well 384 plates in a final volume of 40 μL at room temperature. The assay mixture contained the following: assay buffer (100 mM Tris.Cl, pH 7.0, 20 mM MgCl2, 5% ethanol), 25 μM of diolein, 10 μM of oleoyl-CoA and 10 ng/μL of DGAT2 membrane.
# Sequence of hDGAT2 (Q96PD7 whole entry): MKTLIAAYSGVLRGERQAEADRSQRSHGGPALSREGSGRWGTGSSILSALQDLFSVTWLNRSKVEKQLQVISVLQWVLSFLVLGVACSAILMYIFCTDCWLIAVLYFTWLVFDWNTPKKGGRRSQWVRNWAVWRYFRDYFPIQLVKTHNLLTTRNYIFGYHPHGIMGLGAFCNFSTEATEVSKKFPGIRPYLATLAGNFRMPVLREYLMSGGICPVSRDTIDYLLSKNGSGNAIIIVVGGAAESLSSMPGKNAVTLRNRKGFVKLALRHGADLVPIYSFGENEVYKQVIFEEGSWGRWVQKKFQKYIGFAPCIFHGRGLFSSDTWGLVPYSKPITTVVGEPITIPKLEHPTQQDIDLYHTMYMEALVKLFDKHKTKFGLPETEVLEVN
row,IC50,Compound
1,281 nM,"COC(=O)c1cccc(-c2ccc(CNC(=O)C3CC3c3ccccc3)c3c2CCN(C(=O)C(C)C)C3)c1 (stereo not shown) [Example 130, methyl 3-(2-isobutyryl-8-((2-phenylcyclopropanecarboxamido)methyl)-1,2,3,4-tetrahydroisoquinolin-5-yl)benzoate]"
2,232 nM,"CCC(C)CNC(=O)N1CCc2c(-c3cccc(OC)c3)ccc(CNC(=O)[C@@H]3C[C@H]3c3ccccc3)c2C1 (relative stereo) [Example 75, 5-(3-methoxyphenyl)-N-(2-methylbutyl)-8-(((trans)-2-phenylcyclopropanecarboxamido)methyl)-3,4-dihydroisoquinoline-2(1H)-carboxamide]"
3,3340 nM,"COC(=O)c1cccc(-c2ccc(CNC(=O)C3CC3c3ccccc3)c3c2CCN(C(=O)C2CCC(C)CC2)C3)c1 (stereo not shown) [Example 137, methyl 3-(2-(4-methylcyclohexanecarbonyl)-8-((2-phenylcyclopropanecarboxamido)methyl)-1,2,3,4-tetrahydroisoquinolin-5-yl)benzoate]"
4,4640 nM,"CC(C)(C)NC(=O)N1CCc2c(-c3ccc4ncnn4c3)ccc(CNC(=O)[C@@H]3C[C@H]3c3ccccc3)c2C1 (relative stereo) [Example 29, 5-([1,2,4]triazolo[1,5-a]pyridin-6-yl)-N-(tert-butyl)-8-(((trans)-2-phenylcyclopropanecarboxamido)methyl)-3,4-dihydroisoquinoline-2(1H)-carboxamide]"
5,4500 nM,"Cc1noc([C@@H]2C[C@H]2C(=O)NCc2ccc(-c3cccc(OC(F)(F)F)c3)c3c2CN(Cc2noc(C4CC4)n2)CC3)n1 (relative stereo) [Example 101, (trans)-N-((2-((5-cyclopropyl-1,2,4-oxadiazol-3-yl)methyl)-5-(3-(trifluoromethoxy)phenyl)-1,2,3,4-tetrahydroisoquinolin-8-yl)methyl)-2-(3-methyl-1,2,4-oxadiazol-5-yl)cyclopropanecarboxamide]"
6,87 nM,"COc1cccc(-c2ccc(CNC(=O)C3CC3c3ccccc3)c3c2CCN(C(=O)NC2CC(F)(F)C2)C3)c1 (stereo not shown) [Example 57, N-(3,3-difluorocyclobutyl)-5-(3-methoxyphenyl)-8-((2-phenylcyclopropanecarboxamido)methyl)-3,4-dihydroisoquinoline-2(1H)-carboxamide]"
7,5500 nM,"COC(=O)c1cccc(-c2ccc(CNC(=O)C3CC3c3ccccc3)c3c2CCN(C(=O)c2cnoc2C(C)C)C3)c1 (stereo not shown) [Example 122, methyl 3-(2-(5-isopropylisoxazole-4-carbonyl)-8-((2-phenylcyclopropanecarboxamido)methyl)-1,2,3,4-tetrahydroisoquinolin-5-yl)benzoate]"
8,19.6 nM,"Cc1noc([C@@H]2C[C@H]2C(=O)NCc2ccc(-c3cccc(C(F)(F)F)c3)c3c2CN(C(=O)NC2(C)COC2)CC3)n1 (relative stereo) [Example 69, 8-(((trans)-2-(3-methyl-1,2,4-oxadiazol-5-yl)cyclopropanecarboxamido)methyl)-N-(3-methyloxetan-3-yl)-5-(3-(trifluoromethyl)phenyl)-3,4-dihydroisoquinoline-2(1H)-carboxamide]"
9,522 nM,"COC(=O)c1cccc(-c2ccc(CNC(=O)C3CC3c3ccccc3)c3c2CCN(C(=O)C2(C)CC2)C3)c1 (stereo not shown) [Example 132, methyl 3-(2-(1-methylcyclopropanecarbonyl)-8-((2-phenylcyclopropanecarboxamido)methyl)-1,2,3,4-tetrahydroisoquinolin-5-yl)benzoate]"
10,1580 nM,"Cc1noc([C@@H]2C[C@H]2C(=O)NCc2ccc(-c3cccc(C(F)(F)F)c3)c3c2CN(C(=O)C(C)(C)O)CC3)n1 (stereo in doubt) [Example 120, (trans)-N-((2-(2-hydroxy-2-methylpropanoyl)-5-(3-(trifluoromethyl)phenyl)-1,2,3,4-tetrahydroisoquinolin-8-yl)methyl)-2-(3-methyl-1,2,4-oxadiazol-5-yl)cyclopropanecarboxamide]"
11,1460 nM,"CC(C)(C)NC(=O)N1CCc2c(-c3ccnc4[nH]ccc34)ccc(CNC(=O)[C@@H]3C[C@H]3c3ccccc3)c2C1 (relative stereo) [Example 32, N-(tert-butyl)-8-(((trans)-2-phenylcyclopropanecarboxamido)methyl)-5-(1H-pyrrolo[2,3-b]pyridin-4-yl)-3,4-dihydroisoquinoline-2(1H)-carboxamide]"
12,1590 nM,"COC(=O)c1cccc(-c2ccc(CNC(=O)C3CC3c3ccccc3)c3c2CCN(C(=O)C2(C#N)CC2)C3)c1 (stereo not shown) [Example 128, methyl 3-(2-(1-cyanocyclopropanecarbonyl)-8-((2-phenylcyclopropanecarboxamido)methyl)-1,2,3,4-tetrahydroisoquinolin-5-yl)benzoate]"
13,95.6 nM,"CC(C)Cn1cc(-c2ccc(CNC(=O)[C@@H]3C[C@H]3c3ccccc3)c3c2CCN(C(=O)NC(C)(C)C)C3)cn1 (relative stereo) [Example 37, N-(tert-butyl)-5-(1-isobutyl-1H-pyrazol-4-yl)-8-(((trans)-2-phenylcyclopropanecarboxamido)methyl)-3,4-dihydroisoquinoline-2(1H)-carboxamide]"
14,34 nM,"CC(C)(C)NC(=O)N1CCc2c(-c3cccc(C(F)(F)F)c3)ccc(CNC(=O)[C@@H]3C[C@H]3c3ccccc3)c2C1 (relative stereo) [Example 14, N-(tert-butyl)-8-(((trans)-2-phenylcyclopropanecarboxamido)methyl)-5-(3-(trifluoromethyl)phenyl)-3,4-dihydroisoquinoline-2(1H)-carboxamide]"
15,3110 nM,"COc1cccc(-c2ccc(CNC(=O)[C@@H]3C[C@H]3c3ccccc3)c3c2CCN(C(=O)Nc2ccccn2)C3)c1 (relative stereo) [Example 15, 5-(3-methoxyphenyl)-8-(((trans)-2-phenylcyclopropanecarboxamido)methyl)-N-(pyridin-2-yl)-3,4-dihydroisoquinoline-2(1H)-carboxamide]"
16,714 nM,"COc1cccc(-c2ccc(CNC(=O)C3CC3c3ccccc3)c3c2CCN(C(=O)CC(C)(C)C)C3)c1 (stereo not shown) [Example 114, N-((2-(3,3-dimethylbutanoyl)-5-(3-methoxyphenyl)-1,2,3,4-tetrahydroisoquinolin-8-yl)methyl)-2-phenylcyclopropanecarboxamide]"
17,892 nM,"Cc1noc(C2CC2C(=O)NCc2ccc(-c3cccc(OC(F)(F)F)c3)c3c2CN(C(=O)NC2CCS(=O)(=O)C2)CC3)n1 (stereo not shown) [Example 78, N-(1,1-dioxidotetrahydrothiophen-3-yl)-8-((2-(3-methyl-1,2,4-oxadiazol-5-yl)cyclopropanecarboxamido)methyl)-5-(3-(trifluoromethoxy)phenyl)-3,4-dihydroisoquinoline-2(1H)-carboxamide]"
18,1530 nM,"COC(=O)c1cccc(-c2ccc(CNC(=O)C3CC3c3ccccc3)c3c2CCN(C(=O)c2cccc(F)c2)C3)c1 (stereo not shown) [Example 140, methyl 3-(2-(3-fluorobenzoyl)-8-((2-phenylcyclopropanecarboxamido)methyl)-1,2,3,4-tetrahydroisoquinolin-5-yl)benzoate]"
19,360 nM,"COC(=O)c1cccc(-c2ccc(CNC(=O)C3CC3c3ccccc3)c3c2CCN(C(=O)C2CC2C)C3)c1 (stereo not shown) [Example 131, methyl 3-(2-(2-methylcyclopropanecarbonyl)-8-((2-phenylcyclopropanecarboxamido)methyl)-1,2,3,4-tetrahydroisoquinolin-5-yl)benzoate]"
